Results reported in ChEMBL document CHEMBL6182828, “Medicinal chemistry-based perspectives on thiophene and its derivatives: exploring structural insights to discover plausible druggable leads” (RSC Med Chem, 2025).

Tests used:
Mus musculus = experiment: Anti-diabetic activity against 16 hrs fasted KK/Ay mouse assessed as reduced blood glucose level at 2g/kg, po measured after 2 hrs by oral pyruvate tolerance test; assay type: functional
Bacillus subtilis [1] = experiment: Antibacterial activity against Bacillus subtilis ATCC 6633 assessed as zone of inhibition; assay type: functional
Staphylococcus aureus = experiment: Antibacterial activity against Staphylococcus aureus ATCC 25923 assessed as zone of inhibition; assay type: functional
MCF7 [2] = experiment: Antiproliferative activity against human MCF7 cells; assay type: functional, cell-based
[3] = Half life in po dosed human; assay type: ADME, organism-based; conditions: in vivo
Rattus norvegicus = experiment: Anti-inflammatory activity against carrageenan-induced paw edema in Albino rat assessed as inhibition of paw edema at 50 mg/kg, po relative to control; assay type: functional; design: scale not given: the % may be the effect or the level left
Acetylcholinesterase = Acetylcholinesterase (Homo sapiens, UniProt P22303); experiment: Inhibition of AChE (unknown origin) by Ellman's method
Acetylcholinesterase, sequence (P22303 whole entry): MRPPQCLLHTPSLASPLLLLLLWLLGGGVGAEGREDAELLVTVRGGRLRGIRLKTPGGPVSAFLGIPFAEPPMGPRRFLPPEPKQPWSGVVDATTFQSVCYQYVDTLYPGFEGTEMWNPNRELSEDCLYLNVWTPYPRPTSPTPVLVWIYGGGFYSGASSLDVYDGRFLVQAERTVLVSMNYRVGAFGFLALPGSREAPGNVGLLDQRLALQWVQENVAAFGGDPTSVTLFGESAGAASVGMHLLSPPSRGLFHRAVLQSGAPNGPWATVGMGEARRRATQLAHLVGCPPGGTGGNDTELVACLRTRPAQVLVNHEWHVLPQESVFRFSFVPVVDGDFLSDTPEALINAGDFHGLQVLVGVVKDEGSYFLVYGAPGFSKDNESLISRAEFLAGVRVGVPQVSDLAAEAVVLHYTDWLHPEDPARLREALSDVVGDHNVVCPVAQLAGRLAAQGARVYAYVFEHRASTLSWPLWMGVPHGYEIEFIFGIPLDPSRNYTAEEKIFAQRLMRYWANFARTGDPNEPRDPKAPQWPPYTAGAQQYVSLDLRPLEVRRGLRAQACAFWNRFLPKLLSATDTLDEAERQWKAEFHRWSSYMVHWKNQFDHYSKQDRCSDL

[4] = Antioxidant activity assessed as DPPH radical scavenging activity at 10 uM incubated for 30 mins by absorbance based assay relative to control; assay type: functional
dsRNA = experiment: Inhibition of double stranded RNA (unknown origin); assay type: nucleic-acid assay
Leishmania major = experiment: Antileishmanial activity against Leishmania major promastigotes MHOM/IL/80/Friedlin expressing firefly luciferase infected in rhesus monkey LLC-MK2 cells assessed as reduction in parasite growth incubated for 72 hrs by luciferase based luminescence analysis; assay type: functional, organism-based; conditions: LLC-MK2, 72 h
Glucagon receptor [5] = target: T1, Glucagon receptor (Homo sapiens, UniProt P47871); experiment: Antagonist activity at wild type human GCGR transfected in HEK293T cells assessed as intracellular cAMP accumulation incubated for 60 mins by FRET assay; assay type: functional, cell-based
T1 sequence (P47871 whole entry): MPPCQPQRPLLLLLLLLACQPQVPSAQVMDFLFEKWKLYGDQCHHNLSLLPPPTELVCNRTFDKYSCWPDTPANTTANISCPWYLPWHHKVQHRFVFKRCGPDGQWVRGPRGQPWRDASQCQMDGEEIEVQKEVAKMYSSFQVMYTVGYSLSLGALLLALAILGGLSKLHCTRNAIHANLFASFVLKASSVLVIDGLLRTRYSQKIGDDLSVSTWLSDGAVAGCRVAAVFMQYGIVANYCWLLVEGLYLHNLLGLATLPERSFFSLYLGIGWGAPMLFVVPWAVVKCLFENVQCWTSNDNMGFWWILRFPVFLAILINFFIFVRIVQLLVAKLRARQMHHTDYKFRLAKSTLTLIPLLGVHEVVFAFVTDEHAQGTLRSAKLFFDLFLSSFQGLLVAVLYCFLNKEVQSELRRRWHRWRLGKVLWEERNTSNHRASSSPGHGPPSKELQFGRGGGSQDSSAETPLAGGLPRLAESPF

Glucagon receptor [6] = target: T1, Glucagon receptor; experiment: Antagonist activity at wild type human GCGR
NCI-H460 = experiment: Growth inhibition of human NCI-H460 cells incubated for 48 hrs by SRB assay; assay type: functional
MCF7 [7] = experiment: Growth inhibition of human MCF7 cells incubated for 48 hrs by SRB assay; assay type: functional
SF-268 = experiment: Growth inhibition of human SF-268 cells incubated for 48 hrs by SRB assay; assay type: functional
[8] = Half life in human, iv; assay type: ADME
[9] = target: Amine oxidase [flavin-containing] A (Homo sapiens, UniProt P21397); experiment: Inhibition of human MAO-A measured after 25 mins by Amplex Red reagent based fluorescence analysis
Amine oxidase [flavin-containing] A, sequence (P21397 whole entry): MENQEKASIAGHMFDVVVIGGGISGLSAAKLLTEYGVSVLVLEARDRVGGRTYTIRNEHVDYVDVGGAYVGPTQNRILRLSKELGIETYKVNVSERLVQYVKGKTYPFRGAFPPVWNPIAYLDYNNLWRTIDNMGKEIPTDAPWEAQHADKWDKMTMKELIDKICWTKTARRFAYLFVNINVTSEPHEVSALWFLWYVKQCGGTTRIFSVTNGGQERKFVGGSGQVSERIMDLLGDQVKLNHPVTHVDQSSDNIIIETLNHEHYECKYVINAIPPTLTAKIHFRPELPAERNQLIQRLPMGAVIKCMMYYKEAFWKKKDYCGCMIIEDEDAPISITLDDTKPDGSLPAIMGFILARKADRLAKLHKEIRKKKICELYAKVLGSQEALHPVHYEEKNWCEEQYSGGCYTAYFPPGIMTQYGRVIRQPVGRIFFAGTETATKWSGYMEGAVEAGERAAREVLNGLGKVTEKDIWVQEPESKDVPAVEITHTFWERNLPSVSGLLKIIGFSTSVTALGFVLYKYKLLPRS

[10] = Elimination half life in human at 5 mg/kg, po; assay type: ADME, organism-based; conditions: in vivo, read-out: LambdaZ (converted)
[11] = target: Amine oxidase [flavin-containing] B (Homo sapiens, UniProt P27338); experiment: Inhibition of human MAO-B measured after 25 mins by Amplex Red reagent based fluorescence analysis
Amine oxidase [flavin-containing] B, sequence (P27338 whole entry): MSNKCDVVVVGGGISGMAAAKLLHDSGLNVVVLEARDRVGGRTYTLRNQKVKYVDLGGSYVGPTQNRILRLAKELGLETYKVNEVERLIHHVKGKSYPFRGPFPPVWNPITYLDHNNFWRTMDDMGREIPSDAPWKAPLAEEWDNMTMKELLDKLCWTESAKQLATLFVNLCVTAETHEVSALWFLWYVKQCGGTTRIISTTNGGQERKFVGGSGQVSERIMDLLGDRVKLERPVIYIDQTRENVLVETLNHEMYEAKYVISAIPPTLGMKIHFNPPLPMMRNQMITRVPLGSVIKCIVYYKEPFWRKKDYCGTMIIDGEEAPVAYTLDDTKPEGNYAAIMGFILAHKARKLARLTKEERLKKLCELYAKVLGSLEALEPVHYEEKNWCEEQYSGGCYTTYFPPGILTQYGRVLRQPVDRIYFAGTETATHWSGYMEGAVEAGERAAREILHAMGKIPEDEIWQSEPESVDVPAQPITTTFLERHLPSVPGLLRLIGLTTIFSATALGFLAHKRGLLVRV

[12] = target: T2, Polyunsaturated fatty acid 5-lipoxygenase (Homo sapiens, UniProt P09917); experiment: Inhibition of 5-LOX (unknown origin)
T2 sequence (P09917 whole entry): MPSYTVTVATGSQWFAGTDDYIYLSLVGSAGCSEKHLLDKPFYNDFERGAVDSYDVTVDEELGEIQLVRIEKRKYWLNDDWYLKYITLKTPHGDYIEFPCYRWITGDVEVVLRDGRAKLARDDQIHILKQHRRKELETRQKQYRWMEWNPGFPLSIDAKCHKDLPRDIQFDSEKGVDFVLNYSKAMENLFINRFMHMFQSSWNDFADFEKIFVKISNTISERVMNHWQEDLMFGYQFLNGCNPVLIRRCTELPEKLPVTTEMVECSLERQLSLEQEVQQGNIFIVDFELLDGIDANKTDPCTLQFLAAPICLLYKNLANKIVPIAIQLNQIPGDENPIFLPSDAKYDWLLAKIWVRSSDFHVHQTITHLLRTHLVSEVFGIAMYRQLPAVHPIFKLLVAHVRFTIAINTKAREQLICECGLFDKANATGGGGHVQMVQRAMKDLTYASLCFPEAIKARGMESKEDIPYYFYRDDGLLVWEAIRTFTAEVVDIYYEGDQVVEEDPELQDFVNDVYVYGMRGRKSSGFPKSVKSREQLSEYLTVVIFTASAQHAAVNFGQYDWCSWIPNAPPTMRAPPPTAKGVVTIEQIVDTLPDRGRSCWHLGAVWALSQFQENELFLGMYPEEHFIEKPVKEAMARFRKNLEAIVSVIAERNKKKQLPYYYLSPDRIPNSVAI

[13] = Antioxidant activity assessed as DPPH radical scavenging activity; assay type: functional
Candida albicans = experiment: Antifungal activity against Candida albicans assessed as zone of inhibition; assay type: functional
Arthroderma pannicola = experiment: Antifungal activity against Arthroderma pannicola assessed as diameter of zone of inhibition; assay type: functional
Bacillus subtilis [14] = experiment: Antibacterial activity against Bacillus subtilis ATCC 6633 assessed as zone of inhibition incubated for 48 hrs by agar diffusion method; assay type: functional
Escherichia coli = experiment: Antibacterial activity against Escherichia coli ATCC 35218 assessed as zone of inhibition incubated for 48 hrs by agar diffusion method; assay type: functional
[15] = Inhibition of urease (unknown origin)
[16] = target: Vascular endothelial growth factor receptor 2 (Homo sapiens, UniProt P35968); experiment: Inhibition of VEGFR2 (unknown origin)
Vascular endothelial growth factor receptor 2, sequence (P35968 whole entry): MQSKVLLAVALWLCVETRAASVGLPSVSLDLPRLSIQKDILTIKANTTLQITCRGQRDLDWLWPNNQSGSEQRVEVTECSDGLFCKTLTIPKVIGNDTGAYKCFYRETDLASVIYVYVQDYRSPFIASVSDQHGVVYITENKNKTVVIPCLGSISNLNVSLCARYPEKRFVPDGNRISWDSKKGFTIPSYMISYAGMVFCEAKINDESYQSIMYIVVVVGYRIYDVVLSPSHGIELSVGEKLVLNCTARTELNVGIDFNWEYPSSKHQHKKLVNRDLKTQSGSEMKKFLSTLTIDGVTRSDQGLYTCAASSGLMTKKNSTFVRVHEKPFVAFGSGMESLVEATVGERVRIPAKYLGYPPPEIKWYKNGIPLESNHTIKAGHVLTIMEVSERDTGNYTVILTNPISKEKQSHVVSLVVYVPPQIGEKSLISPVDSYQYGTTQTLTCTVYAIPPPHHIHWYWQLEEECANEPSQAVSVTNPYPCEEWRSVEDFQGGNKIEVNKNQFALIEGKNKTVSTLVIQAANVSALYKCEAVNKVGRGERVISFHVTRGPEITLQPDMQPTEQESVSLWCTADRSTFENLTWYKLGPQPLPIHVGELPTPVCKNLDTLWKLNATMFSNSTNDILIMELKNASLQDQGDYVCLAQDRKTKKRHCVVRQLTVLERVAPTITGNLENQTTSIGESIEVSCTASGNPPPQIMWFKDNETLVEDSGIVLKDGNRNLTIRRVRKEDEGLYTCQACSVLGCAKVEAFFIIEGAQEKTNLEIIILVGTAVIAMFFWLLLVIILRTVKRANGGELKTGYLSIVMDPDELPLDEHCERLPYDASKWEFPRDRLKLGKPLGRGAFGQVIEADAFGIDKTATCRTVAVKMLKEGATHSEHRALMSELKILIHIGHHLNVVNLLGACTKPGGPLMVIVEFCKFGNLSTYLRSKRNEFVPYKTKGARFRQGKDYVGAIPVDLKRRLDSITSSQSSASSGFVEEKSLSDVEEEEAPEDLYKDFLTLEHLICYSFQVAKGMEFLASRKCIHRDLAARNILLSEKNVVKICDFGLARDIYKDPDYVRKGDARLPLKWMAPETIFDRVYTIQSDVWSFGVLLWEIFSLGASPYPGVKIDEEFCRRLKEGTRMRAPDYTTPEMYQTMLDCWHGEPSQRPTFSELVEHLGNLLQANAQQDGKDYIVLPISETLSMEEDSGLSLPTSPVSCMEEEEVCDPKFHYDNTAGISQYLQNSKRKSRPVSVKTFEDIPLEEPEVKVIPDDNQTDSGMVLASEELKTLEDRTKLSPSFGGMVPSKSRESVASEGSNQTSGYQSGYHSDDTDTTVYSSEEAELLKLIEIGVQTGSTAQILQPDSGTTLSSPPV

[17] = target: Epidermal growth factor receptor (Homo sapiens, UniProt P00533); experiment: Inhibition of EGFR (unknown origin)
Epidermal growth factor receptor, sequence (P00533 whole entry): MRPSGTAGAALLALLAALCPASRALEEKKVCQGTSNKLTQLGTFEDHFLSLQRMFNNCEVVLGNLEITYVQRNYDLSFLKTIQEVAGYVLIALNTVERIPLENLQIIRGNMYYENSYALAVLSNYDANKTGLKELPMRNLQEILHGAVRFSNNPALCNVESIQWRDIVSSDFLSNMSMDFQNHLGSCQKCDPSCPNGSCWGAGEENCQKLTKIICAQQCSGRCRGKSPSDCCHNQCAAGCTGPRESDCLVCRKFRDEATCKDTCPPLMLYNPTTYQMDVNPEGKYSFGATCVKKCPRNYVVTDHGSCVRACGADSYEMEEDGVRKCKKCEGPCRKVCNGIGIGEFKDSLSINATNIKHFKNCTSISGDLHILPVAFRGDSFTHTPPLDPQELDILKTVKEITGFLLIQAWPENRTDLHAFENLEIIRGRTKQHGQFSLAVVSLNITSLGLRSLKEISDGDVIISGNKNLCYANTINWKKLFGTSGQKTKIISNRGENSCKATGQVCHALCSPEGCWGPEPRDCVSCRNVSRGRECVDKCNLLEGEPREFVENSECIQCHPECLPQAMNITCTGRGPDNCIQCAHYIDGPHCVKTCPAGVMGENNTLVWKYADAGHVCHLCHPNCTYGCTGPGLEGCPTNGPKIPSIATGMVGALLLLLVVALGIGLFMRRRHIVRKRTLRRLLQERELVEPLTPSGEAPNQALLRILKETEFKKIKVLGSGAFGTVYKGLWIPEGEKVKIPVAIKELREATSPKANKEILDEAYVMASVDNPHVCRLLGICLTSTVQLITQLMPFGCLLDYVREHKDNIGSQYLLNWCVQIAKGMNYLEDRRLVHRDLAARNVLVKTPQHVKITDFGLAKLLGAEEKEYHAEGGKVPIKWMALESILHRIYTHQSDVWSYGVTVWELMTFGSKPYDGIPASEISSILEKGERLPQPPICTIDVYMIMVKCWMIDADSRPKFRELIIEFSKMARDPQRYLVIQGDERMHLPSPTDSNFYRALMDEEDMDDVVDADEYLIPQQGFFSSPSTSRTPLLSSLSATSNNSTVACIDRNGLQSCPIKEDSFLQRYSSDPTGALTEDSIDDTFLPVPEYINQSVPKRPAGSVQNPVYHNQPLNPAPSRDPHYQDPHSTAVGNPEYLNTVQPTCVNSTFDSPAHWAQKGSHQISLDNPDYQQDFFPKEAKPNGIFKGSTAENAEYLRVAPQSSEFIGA

[18] = Inhibition of Alpha-amylase (unknown origin); design: species or system Homo sapiens
Alpha glucosidase = Alpha glucosidase (Homo sapiens, UniProt O43451+P10253+P14410+Q2M2H8); experiment: Inhibition of Alpha glucosidase (unknown origin); assay type: protein assay
[19] = Antioxidant activity assessed as ROS scavenging activity relative to control; assay type: functional; conditions: dose or concentration not given here
PC-3 = experiment: cells; conditions: Homo sapiens
Description: Cytotoxicity against human PC-3 cells assessed as reduction in cell viability by MTT assay

MDA-MB-231 = experiment: cells; conditions: Homo sapiens
Description: Cytotoxicity against human MDA-MB-231 cells assessed as reduction in cell viability by MTT assay

A549 = experiment: cells; conditions: Homo sapiens
Description: Cytotoxicity against human A549 cells assessed as reduction in cell viability by MTT assay

CC(=O)CC(=O)c1cc2ccccc2s1
Activity (Mus musculus): <15.6 mmol/L

O=C(CSc1nnc(-c2sc3ccccc3c2Cl)[nH]1)c1ccc(F)cc1
inhibition zone (IZ) (Bacillus subtilis [1]): 16 mm | inhibition zone (IZ) (Staphylococcus aureus): 15 mm

Nc1sc2c(c1C(=O)Nc1cnc3ccccc3c1)CCCC2
IC50 (MCF7 [2]; Homo sapiens, MCF7, read-out: IC50): 33100 nM

Cc1cc(C2=NO[C@@](c3cc(Cl)c(Cl)c(Cl)c3)(C(F)(F)F)C2)sc1C(=O)NCC(=O)NCC(F)(F)F [LOTILANER]
half-life [3]: 11 h

COc1ccc2c(c1)c(CC(=O)O)c(C)n2C(=O)c1ccc(Cl)cc1 [INDOMETHACIN]
Activity (Rattus norvegicus): 47.73%

O=C(/C=C/c1cccs1)c1ccc(OCCCCBr)cc1
IC50 (Acetylcholinesterase): 420 nM

O=C(C[S+]([O-])C(F)(F)F)c1cc2ccccc2s1 (centres undefined)
Activity (Mus musculus): <10 mmol/L

CN1C(C(=O)Nc2ccccn2)=C(O)c2sccc2S1(=O)=O [TENOXICAM]
half-life [3]: 72 h

Clc1c(-c2nnc(CNc3ccccc3)o2)sc2ccccc12
inhibition zone (IZ) (Bacillus subtilis [1]): 16 mm | inhibition zone (IZ) (Staphylococcus aureus): 15 mm

O=C(Nc1nc(-c2cc(Cl)cs2)c(N2CCN(C3CCCCC3)CC2)s1)c1cnc(N2CCC(C(=O)O)CC2)c(Cl)c1 [AVATROMBOPAG]
half-life [3]: 19 h

Cc1cc(=O)oc2c(/C=N/NC(=O)c3sc4ccccc4c3Cl)c(O)ccc12
inhibition [4]: 50%

Clc1ccc(C2CC(c3ccc(Cl)s3)=NN2c2ccccc2)cc1 (centres undefined)
IC50 (dsRNA): 11000 nM

CCOC(=O)c1c(NC(=O)c2cccc(C(F)(F)F)c2F)sc2c1CC(C)(C)NC2(C)C
EC50 (Leishmania major): 90 nM

Cc1cc(Cl)ccc1-c1ccc(NC(=O)C(Cc2ccc(C(=O)NCCS(=O)(=O)O)s2)c2ccc(-c3ccc(C(C)(C)C)cc3)cc2)cc1 (centres undefined)
IC50 (Glucagon receptor [5]): 14400 nM | IC50 (Glucagon receptor [6]): 4400 nM

CCOC(=O)c1cc(C(=O)N/N=C(/C)[C@H]2CC[C@H]3[C@@H]4CC=C5C[C@@H](O)CC[C@]5(C)[C@H]4CC[C@]23C)c(Nc2ccccc2)s1
GI50 (NCI-H460): 10 nM | GI50 (MCF7 [7]): 10 nM | GI50 (SF-268): 30 nM

O=C(O[C@H]1C[N+]2(CCCOc3ccccc3)CCC1CC2)C(O)(c1cccs1)c1cccs1
half-life [3]: 24 h

CNCC[C@H](Oc1cccc2ccccc12)c1cccs1 [DULOXETINE]
half-life [3]: 12 h

COc1ccsc1CNCC[C@@]1(c2ccccn2)CCOC2(CCCC2)C1 [OLICERIDINE]
half-life [8]: 1.3 h

C/C(=N\N=C1/CS(=O)(=O)N(C)c2ccccc21)c1sccc1Cl
IC50 [9]: 1040 nM

CC(=O)Oc1cc2c(s1)CCN(C(C(=O)C1CC1)c1ccccc1F)C2 (centres undefined)
half-life [10]: 7.4 h

CONC(=O)Nc1ccc(-c2sc3c(c2CN(C)C)c(=O)n(-c2ccc(OC)nn2)c(=O)n3Cc2c(F)cccc2F)cc1 [RELUGOLIX]
half-life [3]: 25 h

N#Cc1c(-n2c(N)c(C#N)c(N)c(/N=N/c3ccccc3)c2=O)sc2c1CCCC2
GI50 (NCI-H460): 8300 nM | GI50 (MCF7 [7]): 2000 nM | GI50 (SF-268): 4000 nM

C/C(=N\N=C1/CS(=O)(=O)N(C)c2ccccc21)c1ccc(Br)s1
IC50 [11]: 1030 nM

COc1cc2ncn(-c3cc(OCc4ccccc4C(F)(F)F)c(C(N)=O)s3)c2cc1OC [GW843682X]
IC50 [12]: 10000 nM

Cc1nc2ccc(CN(C)c3ccc(C(=O)N[C@@H](CCC(=O)O)C(=O)O)s3)cc2c(=O)[nH]1 [RALTITREXED]
half-life [3]: 192 h

COc1cccc(NC(=O)Cn2cc(CN3CNc4sccc4C3=O)nn2)c1
IC50 [13]: 30.16 µg/mL

Cc1cc(Cl)ccc1-c1ccc(NC(=O)C(Cc2ccc(C(=O)NCCS(=O)(=O)O)s2)c2ccc(-c3ccc(OC(F)(F)F)cc3)cc2)cc1 (centres undefined)
IC50 (Glucagon receptor [5]): 4400 nM | IC50 (Glucagon receptor [6]): 6100 nM

Cc1ccc(-c2cc(C(F)(F)F)nn2-c2ccc(S(N)(=O)=O)cc2)cc1 [CELECOXIB]
IC50 [12]: 5640 nM

O=c1c2ccccc2nc(-c2sc3ccccc3c2Cl)n1-c1ccc(F)cc1
inhibition zone (IZ) (Candida albicans): 14 mm | inhibition zone (IZ) (Arthroderma pannicola): 14 mm

O=c1c2ccccc2nc(-c2sc3ccccc3c2Cl)n1O
inhibition zone (IZ) (Bacillus subtilis [14]): 15 mm | inhibition zone (IZ) (Escherichia coli): 16 mm

Cc1ccc2c(c1)n(CN1CCN(c3ccccc3)CC1)c(=O)n2CN1CCN(c2ccccc2)CC1
IC50 [15]: 110 nM

N#Cc1c(N)sc(C(=O)NC2=NN=C(O)/C2=C(\C=C\c2ccccc2)c2ccccc2)c1N
IC50 [16]: 320 nM | IC50 [17]: 320 nM

O=c1[nH]c(-c2sc3ccccc3c2Cl)nc2ccccc12
inhibition zone (IZ) (Bacillus subtilis [14]): 16 mm | inhibition zone (IZ) (Escherichia coli): 12 mm

COc1ccc(CNC(=O)Nc2sc3c(c2C#N)CCCC3)c(OC)c1
IC50 [18]: 30400 nM | IC50 (Alpha glucosidase): 590 nM

CCOC(=O)c1c(NC(=O)c2c(NC(=O)CC#N)sc3c2CCC3)sc2c1CCCC2
inhibition [19]: 64.1%

Cc1ccc(NCc2ccc(CNc3ccc(C)cc3)o2)cc1
IC50 (PC-3): 1030 nM | IC50 (MDA-MB-231): 880 nM | IC50 (A549): 680 nM

Cc1c(NC(=O)Nc2ccc(OC(F)(F)F)cc2)sc2ccccc12
IC50 [16]: 11.3 nM | IC50 [17]: 46.6 nM

Oc1ccc(Nc2nnnc3sc4c(c23)CCC4)cc1
IC50 (MCF7 [2]; mcf7): 38730 nM

N#Cc1c(-c2ccc(N3CCOCC3)cc2)csc1N
Activity (Rattus norvegicus): 48.94%

Cc1ccsc1C(=CCCN1CCC[C@@H](C(=O)O)C1)c1sccc1C [TIAGABINE]
half-life [3]: 7 h

CC(C(=O)O)c1ccc(C(=O)c2ccccc2)s1 (centres undefined) [TIAPROFENIC ACID]
half-life [3]: 1.5 h

CC(=O)c1ccc(NC(=O)c2sc(Nc3ccccc3)c(C(=O)Nc3ccccc3)c2N)cc1
inhibition [4]: 62%

COc1cc(/C=C/C(=O)c2cc3ccccc3s2)cc(OC)c1O
IC50 ([13]; read-out: IC50): 6000 nM

COc1cccc2c1C(=O)c1c(O)c3c(c(O)c1C2=O)C[C@@](O)(C(=O)CO)C[C@@H]3O[C@H]1C[C@H](N)[C@H](O)[C@H](C)O1 [DOXORUBICIN]
IC50 (PC-3): 700 nM | IC50 (MDA-MB-231): 980 nM | IC50 (A549): 700 nM

CO[C@@]1(NC(=O)Cc2cccs2)C(=O)N2C(C(=O)O)=C(COC(N)=O)CS[C@@H]21 [CEFOXITIN]
half-life [8]: 0.683 h

Cc1ccc([C@@H]2O[C@H](CO)[C@@H](O)[C@H](O)[C@H]2O)cc1Cc1ccc(-c2ccc(F)cc2)s1 [CANAGLIFLOZIN ANHYDROUS]
half-life [10]: 10.6 h

COc1ccc(/C=C2\SC(=S)N(NC(=O)c3sc4ccccc4c3Cl)C2=O)cc1OC
IC50 [12]: 2330 nM

COc1ccc2c3ccnc(C)c3n(CC3CC(c4cccs4)=NO3)c2c1 (centres undefined)
IC50 [12]: 29200 nM

O=c1c2ccccc2nc(-c2sc3ccccc3c2Cl)n1-c1ccc([N+](=O)[O-])cc1
inhibition zone (IZ) (Candida albicans): 17 mm | inhibition zone (IZ) (Arthroderma pannicola): 17 mm

COC1=C(Nc2sc3c(c2C(N)=O)CCCC3)C(=O)c2ccccc2C1=O
inhibition [19]: 96%
